# From US20200278355A1, “CONJUGATED PROTEINS AND USES THEREOF” (THE SCRIPPS RESEARCH INSTITUTE, priority 2017, published 2020)
# What was measured:
# [1] = test system: protein targets of BPK-29 in NSCLC cells (H460); assay: ABPP-SILAC competition of BPK-29yne labeling in H460 cells, proteome-wide; format: cell-based, human; conditions: beyond targets mapped by isoTOP-ABPP
# Protocol: Isotopically labeled H460 cell lines were generated as described above. Light and heavy cells were treated with compounds (20 μM) or DMSO, respectively, for 3 h, followed by labeling with the BPK-29yne (5 μM) for 30 min. Cells were washed once ice-cold PBS and lysed in 1% Triton 100-X dissolved in PBS with protease inhibitors (Sigma) by sonication. Lysate was adjusted to 1.5 mg ml^−1 in 500 μL. Samples were conjugated by CuAAC to Biotin-PEG4-azide (5 μL of 10 mM stocks in DMSO, final concentration=100 μM). CuAAC “click” mix contained TCEP, TBTA ligand and CuSO4 as detailed for isoTOP-ABPP sample preparation. Samples were further processed as detailed in: isoTOP-ABPP streptavidin enrichment and isoTOP-ABPP trypsin TEV digestion with the following exception: after overnight incubation at 37° C. with trypsin, tryptic digests were separated from the beads with Micro Bio-Spin columns (Bio-Rad) by centrifugation (1,000×g, 1 min). Beads were rinsed once with water (200 μL) and combined with tryptic digests. […]
# The MS2 spectra data were extracted and searched using RAW Convertor and ProLuCID algorithm as described in isoTOP-ABPP peptide and protein quantification. […] Ratios of heavy/light (DMSO/test compound) peaks were calculated using in-house CIMAGE software. […] The mean R values and standard deviation for multiple biological experiments were calculated from the average ratios from each replicate. […]
# SCP2 = molecular target: T1, SCP2 (Homo sapiens, UniProt P22307); assay: isoTOP-ABPP of compound-treated H460 cells: SCP2; format: cell-based; conditions: SCP2 C94; 40 μM
# T1 construct: H460 cells or H460 cells expressing luciferase in a 10 cm plate were incubated with indicated compounds; endogenous in cells; host or cells: H460
# T1 sequence (P22307 whole entry): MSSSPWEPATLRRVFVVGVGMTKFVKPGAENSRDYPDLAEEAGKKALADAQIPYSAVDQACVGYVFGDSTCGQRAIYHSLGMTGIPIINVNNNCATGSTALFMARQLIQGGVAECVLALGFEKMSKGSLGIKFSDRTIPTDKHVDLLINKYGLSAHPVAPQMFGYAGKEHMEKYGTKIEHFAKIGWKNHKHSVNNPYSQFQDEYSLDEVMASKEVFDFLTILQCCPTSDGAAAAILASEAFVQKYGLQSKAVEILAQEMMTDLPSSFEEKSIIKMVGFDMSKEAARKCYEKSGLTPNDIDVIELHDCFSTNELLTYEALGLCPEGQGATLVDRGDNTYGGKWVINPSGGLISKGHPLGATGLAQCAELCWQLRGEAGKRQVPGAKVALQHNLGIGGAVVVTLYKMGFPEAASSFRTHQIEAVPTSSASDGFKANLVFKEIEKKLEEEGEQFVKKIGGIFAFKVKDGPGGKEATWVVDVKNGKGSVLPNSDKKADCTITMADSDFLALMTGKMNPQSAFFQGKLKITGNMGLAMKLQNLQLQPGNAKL
# Protocol: For analysis of NR0B1 ligands or control compound reactivity, H460 cells or H460 cells expressing luciferase in a 10 cm plate were incubated with indicated compounds in serum/dye-free RPMI for 3 hours at 37° C. Cells were washed once ice-cold PBS and lysed in 1% Triton X-100 dissolved in PBS with protease inhibitors (Sigma) by sonication. Samples were clarified by centrifugation for 10 min at 16,000×g. Lysate was adjusted to 1.5 mg ml^−1 in 500 μL.
# Samples were labeled for 1 h at ambient temperature with 100 μM iodoacetamide alkyne (1, IA-alkyne, 5 μL of 10 mM stock in DMSO). Samples were conjugated by copper-catalyzed azide-alkyne cycloaddition (CuAAC) to isotopically labeled, TEV-cleavable tags (TEV-tags). Heavy CuAAC reaction mixtures was added to the DMSO-treated or shGFP control samples and light CuAAC reaction mixture was added to compound-treated or shNRF2 samples. The CuAAC reaction mixture consisted of TEV tags (light or heavy, 10 μL of 5 mM stocks in DMSO, final concentration=100 μM), 1 mM tris(2-carboxyethyl)phosphine hydrochloride (TCEP; fresh 50× stock in water, final concentration=1 mM), ligand (17× stock in DMSO:t-butanol 1:4, final concentration=100 μM) and 1 mM CuSO4 (50× stock in water, final concentration=1 mM). The samples were allowed to react for 1 h at which point the samples were centrifuged (16,000×g, 5 min, 4° C.). […]
structure (smiles),measurement,setting,value
"O=C(c1ccc(N2CCOCC2)cc1)N1CCCC(N(Cc2ccccc2)C(=O)CCl)CC1 (centres unmarked) [BPK-29, N-benzyl-2-chloro-N-(1-(4-morpholinobenzoyl)azepan-4-yl)acetamide]","further proteins engaged, found with the BPK-29yne probe",[1],seven
same,BPK-29-competed isoTOP-ABPP analysis,SCP2,Yes (Competed defined as showing R value ≥ 3.0 at 40 μM of test compound)
